Experimental data reported in patent publication EP4792833A1, “CLEAVABLE LINKER COMPOUND FOR PRODRUG DELIVERY SYSTEM, AND PREPARATION AND USE THEREOF” (East China Normal University, priority 2023, dated 2025).

Legend:
[1] = Stability test in PBS and mouse plasma (HPLC); format: in vitro ADME
Description: The PBS solution (1 mM, pH 7.4) of Compound (J1-1) prepared in Example 1 of the present invention was incubated at 37 °C. Corresponding samples (n=3) were taken on Day 1, Day 2, Day 3, Day 5, and Day 7, and the contents of (J1-1) and SN38 were determined by HPLC.
Mouse plasma stability: 40 µL of the PBS solution (1 mM, pH 7.4) of Compound (J1-1) prepared in Example 1 of the present invention was mixed with 360 µL of mouse plasma and incubated in a shaker at 37 °C. Corresponding samples (n=3) were taken on Day 1, Day 2, Day 3, Day 5, and Day 7, precipitated with cold acetonitrile, centrifuged at 4 °C for 30 min, and the supernatant was collected. The content of SN38 was determined by HPLC.

β-glucuronidase = biological target: T1, β-glucuronidase (Homo sapiens, UniProt P08236); assay: Enzyme release assay with β-glucuronidase (SN38 by HPLC); format: biochemical; conditions: for release of SN38 triggered by β-glucuronidase: β-glucuronidase 300 U, 37 °C, within 45 min
T1 sequence (P08236 23-651): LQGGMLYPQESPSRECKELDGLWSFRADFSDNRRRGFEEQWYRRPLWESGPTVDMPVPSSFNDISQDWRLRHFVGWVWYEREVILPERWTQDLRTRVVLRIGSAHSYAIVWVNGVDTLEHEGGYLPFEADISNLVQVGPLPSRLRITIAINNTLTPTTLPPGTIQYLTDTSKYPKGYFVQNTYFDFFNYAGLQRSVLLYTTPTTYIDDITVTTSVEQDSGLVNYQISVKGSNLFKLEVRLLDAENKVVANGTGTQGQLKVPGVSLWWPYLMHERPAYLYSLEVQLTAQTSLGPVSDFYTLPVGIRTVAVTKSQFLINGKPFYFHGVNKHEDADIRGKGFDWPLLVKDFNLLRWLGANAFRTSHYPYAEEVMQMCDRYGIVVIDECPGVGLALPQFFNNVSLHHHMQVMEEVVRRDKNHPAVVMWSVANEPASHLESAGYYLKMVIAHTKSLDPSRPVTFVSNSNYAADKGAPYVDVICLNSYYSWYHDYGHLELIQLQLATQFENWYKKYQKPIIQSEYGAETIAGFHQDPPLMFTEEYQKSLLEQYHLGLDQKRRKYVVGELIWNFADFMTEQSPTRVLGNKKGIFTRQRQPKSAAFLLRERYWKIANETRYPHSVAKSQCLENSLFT
Description: Compound (J1-1) solution (100 µM, pH 7.4 or pH 5.5) prepared in Example 1 of the present invention was mixed with β-glucuronidase (300 U) and incubated in a shaker at 37 °C. Corresponding samples (n=3) were taken at 1 min, 2 min, 5 min, 10 min, 20 min, 45 min, 60 min, and 90 min, precipitated with cold acetonitrile, centrifuged at 4 °C for 15 min, and the supernatant was collected. The content of SN38 was determined by HPLC.

[2] = tested on: HCT116, A549, MCF-7, HepG2, and 4T1 cells; assay: In vitro drug cytotoxicity assay (MTT) with or without β-glucuronidase; format: cell-based; conditions: 72 h
Description: The in vitro cytotoxicity of Compound (J1-1) prepared in Example 1 of the present invention against HCT116, A549, MCF-7, HepG2, and 4T1 cells, as well as that in the presence of β-glucuronidase, was determined by MTT assay. A total of 200 µL of culture medium containing 4000 cells was seeded into each well of a 96-well plate. After incubation for adherence for 24 h in an incubator (37 °C, 5% CO2), the culture medium was removed, and 200 µL of drug solutions at various concentrations with or without β-glucuronidase supplementation was added, followed by incubation for 72 h. The medium was removed, 100 µL of MTT solution (0.5 mg/mL) was added to each well, and the plate was incubated for 3 h. Subsequently, 100 µL of triple solution was added to each well, and the plate was incubated for 12 h. The absorbance (OD) at 570 nm was measured using a microplate reader. Cell viability was calculated according to the following formula: Cell viability % = (ODsample −ODblank)/(ODcontrol −ODblank) × 100% [formula]
ODsampleis the absorbance of the drug-treated group, ODblank is the absorbance of complete medium alone, ODcontrol is the absorbance of the cell-seeded group without drug treatment.

[3] = tested on: HCT116 cell xenograft tumor model; assay: Antitumor effect in HCT116 xenograft nude mice; format: in vivo, BALB/c nude mice
Description: Female BALB/c nude mice (4 weeks old) were selected and acclimated for three days in a barrier facility. HCT116 cells (5×10^6) were subcutaneously inoculated into the right flank of nude mice. When tumors grew to 80-100 mm^3, tumor-bearing nude mice were randomly divided into four groups with six mice per group. Normal saline (blank group), 30 mg/kg of (J1-1), and 60 mg/kg of Compound (J1-1) prepared in Example 1 of the present invention (supplementary treatment group) were administered intravenously via the tail vein, respectively. Administration was performed twice a week for a total of five times. Body weight and tumor volume of nude mice were observed and recorded.

CCc1c2c(nc3ccc(OC(=O)N(C)c4cc([N+](=O)[O-])ccc4OCc4ccc(O[C@@H]5O[C@H](C(=O)O)[C@@H](O)[C@H](O)[C@H]5O)c(NC(=O)CCNC(=O)CCCCCN5C(=O)C=CC5=O)c4)cc13)-c1cc3c(c(=O)n1C2)COC(=O)[C@]3(O)CC [Compound J1-1]
release of SN38 ([1]; mouse plasma with PBS at pH 7.4, 37 °C, within seven days): less than 2%
in vitro and in vivo stability ([1]; summary statement): excellent
release of the active drug (β-glucuronidase; conditions simulating the tumor microenvironment, summary statement): can rapidly release the active drug
release of SN38 triggered by β-glucuronidase (β-glucuronidase; pH 5.5, 100 µM): 100%
release of SN38 triggered by β-glucuronidase (β-glucuronidase; pH 7.4, 100 µM): 100%
in vitro cytotoxicity in the presence of β-glucuronidase ([2]; with β-glucuronidase): could release the active drug upon β-glucuronidase triggering, thereby achieving the purpose of killing tumor cells
in vitro cytotoxicity ([2]; without β-glucuronidase): low cytotoxicity
tumor volume ([3]; 30 mg/kg and 60 mg/kg intravenously via tail vein, twice a week, five administrations): significantly reduced or even eliminated
survival period ([3]; HCT116 xenograft mouse model, summary statement): significantly prolonged
